Assay results as given in patent US20080026996A1, “Selective Vpac2 Receptor Reptide Agonists” (ELI LILLY AND COMPANY, priority 2004, published 2008).
Where a SMILES comes first, the peptide text is derived from it. Where no end group is shown, it is not given here. [ ]: non-standard residue; d: D form. The star is where a group is joined. hArg = N=C(N)NCCCC[C@H](N)C(=O)O; Hexanoyl = CCCCCC(=O)*; Aib = CC(C)(N)C(=O)O

Legend:
rat VPAC1 receptor = target: T1, rat VPAC1 receptor (Rattus norvegicus, UniProt P30083); experiment: DiscoveRx in vitro potency, CHO-PO cells transiently transfected with rat VPAC 1 receptor DNA; assay type: cell-based; design: expressed in transfected cells; host or cells: CHO-PO, transient
T1 sequence (P30083 31-459): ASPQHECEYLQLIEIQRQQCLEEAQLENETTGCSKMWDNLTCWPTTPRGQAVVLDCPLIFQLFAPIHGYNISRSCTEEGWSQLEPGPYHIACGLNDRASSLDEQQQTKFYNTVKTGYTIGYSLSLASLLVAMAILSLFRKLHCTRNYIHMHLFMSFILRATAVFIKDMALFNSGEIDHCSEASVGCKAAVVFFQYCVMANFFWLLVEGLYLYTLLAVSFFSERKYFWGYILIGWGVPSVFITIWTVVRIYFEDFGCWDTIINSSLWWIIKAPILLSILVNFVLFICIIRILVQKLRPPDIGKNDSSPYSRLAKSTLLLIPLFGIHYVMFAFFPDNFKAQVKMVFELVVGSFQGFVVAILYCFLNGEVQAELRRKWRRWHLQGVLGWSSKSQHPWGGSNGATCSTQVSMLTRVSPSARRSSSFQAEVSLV
Method: (§1) Also, the cells are washed twice. […] The stimuli are present for 30 minutes. Then, the assay buffer is gently removed.

human VPAC2 [1] = target: T2, human VPAC2 (Homo sapiens, UniProt P41587); experiment: Filter binding assay, membranes of stable VPAC2 cell line, 125I-labeled VIP tracer (Table 2); conditions: read-out: Human VPAC2 Receptor Binding
T2 construct: expressed in transfected cells
T2 sequence (P41587 24-438): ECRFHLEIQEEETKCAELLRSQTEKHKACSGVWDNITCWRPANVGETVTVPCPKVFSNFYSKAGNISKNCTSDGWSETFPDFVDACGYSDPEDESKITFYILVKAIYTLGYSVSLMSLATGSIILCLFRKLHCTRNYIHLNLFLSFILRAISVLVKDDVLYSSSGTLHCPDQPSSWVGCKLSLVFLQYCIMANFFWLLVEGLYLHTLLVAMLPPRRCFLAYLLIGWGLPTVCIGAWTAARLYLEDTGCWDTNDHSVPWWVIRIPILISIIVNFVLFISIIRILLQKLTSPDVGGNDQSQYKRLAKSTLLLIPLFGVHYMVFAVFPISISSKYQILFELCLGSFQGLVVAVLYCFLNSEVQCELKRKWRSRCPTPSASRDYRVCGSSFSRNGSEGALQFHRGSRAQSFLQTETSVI
Method in brief: (§2)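 Membranes 2.5 μg/well; tracer ~40000 cpm; buffer 25 mM HEPES pH 7.4, 0.5% protease-free BSA; 1 h incubation, shaking. Glass-fibre filtration (0.5% polyethyleneamine presoak, 0.2% BSA block), 3× HEPES wash, dry 1 h at 60° C, scintillation count.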

human VPAC1 = target: T3, human VPAC1 (Homo sapiens, UniProt P32241); experiment: Filter binding assay, membranes of cells transiently transfected with human VPAC1, 125I-labeled VIP tracer (Table 2); design: expressed in transfected cells; conditions: read-out: Human VPAC1 Receptor Binding
T3 sequence (P32241 31-457): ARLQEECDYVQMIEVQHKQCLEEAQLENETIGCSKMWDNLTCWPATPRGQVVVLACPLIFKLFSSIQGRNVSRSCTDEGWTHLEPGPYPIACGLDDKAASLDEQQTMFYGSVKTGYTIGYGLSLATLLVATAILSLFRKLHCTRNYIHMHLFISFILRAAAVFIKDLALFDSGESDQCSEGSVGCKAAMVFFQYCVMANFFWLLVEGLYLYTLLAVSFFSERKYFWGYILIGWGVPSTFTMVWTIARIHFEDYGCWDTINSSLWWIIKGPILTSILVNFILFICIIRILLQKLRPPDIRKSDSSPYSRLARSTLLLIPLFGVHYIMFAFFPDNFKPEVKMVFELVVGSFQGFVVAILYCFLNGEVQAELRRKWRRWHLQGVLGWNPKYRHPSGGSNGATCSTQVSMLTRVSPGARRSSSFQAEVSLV
Method in brief: as §2

human VPAC2 [2] = target: T2, human VPAC2; experiment: Alpha screen cAMP in vitro potency, human VPAC2 receptor; assay type: cell-based; conditions: cAMP generation; single result from two analyses performed in a single run; read-out: Human VPAC2 Receptor: Alpha Screen EC50
Method in brief: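 Stimulated cAMP accumulation is read by AlphaScreen after 60 min exposure of 50,000 non-enzymatically harvested cells to compound, followed by lysis with donor beads.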

rat VPAC2 receptor = target: T4, rat VPAC2 receptor (Rattus norvegicus, UniProt P35000); experiment: DiscoveRx in vitro potency, CHO-PO cells transiently transfected with rat VPAC 2 receptor DNA; assay type: cell-based; design: expressed in transfected cells; host or cells: CHO-PO, transient
T4 sequence (P35000 23-437): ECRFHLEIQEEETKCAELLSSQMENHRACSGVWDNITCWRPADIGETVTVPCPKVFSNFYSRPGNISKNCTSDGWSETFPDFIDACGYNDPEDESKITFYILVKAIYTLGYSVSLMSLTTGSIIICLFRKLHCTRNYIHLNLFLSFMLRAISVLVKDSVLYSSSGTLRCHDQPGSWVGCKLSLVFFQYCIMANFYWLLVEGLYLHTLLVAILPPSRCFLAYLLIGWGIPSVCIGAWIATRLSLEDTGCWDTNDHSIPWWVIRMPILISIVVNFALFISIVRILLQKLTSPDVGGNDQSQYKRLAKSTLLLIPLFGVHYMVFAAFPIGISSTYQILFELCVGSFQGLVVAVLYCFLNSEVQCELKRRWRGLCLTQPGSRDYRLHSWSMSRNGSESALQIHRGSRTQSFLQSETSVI
Method: as §1

[3] = Rat serum stability studies (remaining active peptide by DiscoveRx cAMP on CHO-VPAC2 cells); assay type: in vitro ADME
Method in brief: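 EC50 from a DiscoveRx cAMP read-out on CHO-VPAC2 cells indexes how much peptide stays active after 18 h in rat serum at 37° C without aprotinin, against an aprotinin-protected 4° C aliquot.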

human VPAC2 [4] = target: T2, human VPAC2; experiment: DiscoveRx cAMP in vitro potency, CHO-S cell line stably expressing human VPAC2 receptor; assay type: cell-based; conditions: cAMP generation; mean of two independent runs
Method: Also, the cells are washed twice. The cells are incubated in assay buffer plus IBMX for 15 minutes at room temperature. […] The stimuli are present for 30 minutes. Then, the assay buffer is gently removed. […] At day 3, the assay described above for the VPAC2 receptor cell line is performed.

[5] = rat, in vivo, iv, 10 ug/kg
Method: (§3) An IVGTT with glucose is given immediately after T=0 to 6 animals per condition. Samples are taken at 0, 2, 4, 6, and 10 minutes after injection.
(§4) For cell handling, Plate 50,000 cells/well and keep in culture over night. Wash cell twice in PBS and add 50 μl/well stimulation medium consisting of PBS+1.2 MgCl2, 1.3 CaCl2, 2 glucose and 0.5 IBMX. Incubate 15 minutes and add 50 μl/well of the plasma samples (see layout below). Incubate 30 minutes, remove the supernatant and proceed as normal with the DiscoveRx assay. Prepare plates in duplicate. Protease and peptidase inhibitor are present in all plasma samples.

in vivo = conditions: Wistar, rat, iv, 10 ug/kg
Method: as §3, §4

Normal Wistar rats = experiment: Intravenous glucose tolerance test (IVGTT); assay type: in vivo, rat; conditions: IVGTT, insulin
Method: Intravenous glucose tolerance test (IVGTT): Normal Wistar rats are fasted overnight and are anesthetized prior to the experiment. A blood sampling catheter is inserted into the rats. The compound is given in the jugular vein. Blood samples are taken from the carotid artery. A blood sample is drawn immediately prior to the injection of glucose along with the compound. After the initial blood sample, glucose mixed with compound is injected intravenously (i.v.). A glucose challenge of 0.5 g/kg body weight is given, injecting a total of 1.5 mL vehicle with glucose and agonist per kg body weight. The peptide concentration vary to produce the desired dose in μg/kg. Blood samples are drawn at 2, 4, 6 and 10 minutes after giving glucose. The control group of animals receives the same vehicle along with glucose, but with no compound added. In some instances, a 30 minute post-glucose blood sample is drawn. Aprotinin is added to the blood sample (250 kIU/ml blood). The serum is then analyzed for glucose and insulin using standard methodologies.
The assay uses a formulated and calibrated peptide stock in PBS. Normally, this stock is a prediluted 100 μM stock. However, a more concentrated stock with approximately 1 mg agonist per mL is used. The specific concentration is always known. Variability in the maximal response is mostly due to variability in the vehicle dose.

**Q.** Which EC50 (rat VPAC1 receptor) does the source give for `CCCCCC(=O)N[C@@H](Cc1c[nH]cn1)C(=O)N[C@@H](CO)C(=O)N[C@@H](CC(=O)O)C(=O)N[C@@H](C)C(=O)N[C@H](C(=O)N[C@@H](Cc1ccccc1)C(=O)N[C@H](C(=O)N[C@@H](CC(=O)O)C(=O)N[C@@H](CC(N)=O)C(=O)N[C@@H](Cc1ccc(O)cc1)C(=O)N[C@H](C(=O)N[C@@H](CCCCNC(=N)N)C(=O)N[C@@H](CC(C)C)C(=O)N[C@@H](CCCNC(=N)N)C(=O)NC(C)(C)C(=O)N[C@@H](CCC(N)=O)C(=O)N[C@H](C(=O)N[C@@H](C)C(=O)N[C@@H](C)C(=O)NC(C)(C)C(=O)N[C@@H](CCCCN)C(=O)N[C@@H](Cc1ccc(O)cc1)C(=O)N[C@@H](CC(C)C)C(=O)N[C@@H](CCC(N)=O)C(=O)N[C@@H](CO)C(=O)N[C@H](C(=O)N[C@@H](CCCCNC(=N)N)C(=O)N[C@@H](CCCCNC(=N)N)C(=O)NCC(=O)NCC(=O)N1CCC[C@H]1C(=O)N[C@@H](CO)C(=O)N[C@@H](CO)C(=O)NCC(=O)N[C@@H](C)C(=O)N1CCC[C@H]1C(=O)N1CCC[C@H]1C(=O)N1CCC[C@H]1C(=O)N[C@@H](CS)C(N)=O)[C@@H](C)CC)C(C)C)[C@@H](C)O)[C@@H](C)O)C(C)C` [Agonist P333] (Hexanoyl-HSDAVFTDNYT[hArg]LR[Aib]QVAA[Aib]KYLQSI[hArg][hArg]GGPSSGAPPPC-NH2) here?
**A.** 1.37 nM

**Q.** What about the IC50 (human VPAC2 [1]) of the same compound?
**A.** 9.71 nM

**Q.** And the IC50 (human VPAC1)?
**A.** > 3000 nM

**Q.** And the EC50 (human VPAC2 [2])?
**A.** 0.75 nM

**Q.** What about the EC50 (rat VPAC2 receptor) of the same compound?
**A.** 0.13 nM

**Q.** And the “Rat Serum Stability (Estimated purity in % after 72 hours)” value [3]?
**A.** 61.2%

**Q.** What about the “Rat Serum Stability (estimated purity in % after 18 hours)” value [3] of the same compound?
**A.** 40.90%

**Q.** For “HSDAVFTDNYTRLLAKVAAKKYLQSIKNKRYGGPSSGAPPPS [Agonist P89]”, which EC50 (rat VPAC1 receptor) is on record?
**A.** 0.02 nM

**Q.** And the EC50 (human VPAC2 [4])?
**A.** 0.7 nM

**Q.** What about the IC50 (human VPAC2 [1]) of the same compound?
**A.** 0.15 nM

**Q.** And the “Exposure (10 μg/kg, Vdist in μg/(nM * kg))” value [5]?
**A.** 0.64 µg/nM/kg

**Q.** What about the IC50 (human VPAC1) of the same compound?
**A.** 162 nM

**Q.** And the EC50 (human VPAC2 [2])?
**A.** 1.23 nM

**Q.** What about the AUC(0-t) (in vivo) of the same compound?
**A.** 0.523 nM·h

**Q.** And the Cmax (in vivo)?
**A.** 5.45 nM

**Q.** What about the half-life (in vivo) of the same compound?
**A.** 1.32 min

**Q.** What about the “Rat Serum Stability (Estimated purity in % after 72 hours)” value [3] of the same compound?
**A.** <0.4%

**Q.** And the “% increase AUC: Dose = 0.5 μg/kg” value (Normal Wistar rats; 0.5 μg/kg)?
**A.** 110%

**Q.** What about the “% increase AUC: Dose = 10 μg/kg” value (Normal Wistar rats; 10 μg/kg) of the same compound?
**A.** 280%
